The source of these data is patent publication US20100267744A1, “Pharmaceutical Compositions” (Vertex Pharmaceuticals Incorporated, priority 2006, published 2010).

The structures appear in SMILES notation.

Series [1] is classed as physicochemical. An excerpt: The manufacture of an amorphous solid dispersion containing VX-950 presented several challenges. […] Therefore, an appropriate solvent or solvent mixture is crucial to optimizing the processing and production of a solid dispersion.
Series [2] is described as follows: Chemical reactivity of VX-950 with alcohol solvents. Format: physicochemical. The settings on record: MeOH, EtOH, iPrOH. An excerpt:
The manufacture of an amorphous solid dispersion containing VX-950 presented several challenges. […] Therefore, an appropriate solvent or solvent mixture is crucial to optimizing the processing and production of a solid dispersion. In preferred processes, the solvent includes a volatile solvent. In some embodiments, the solvent includes a mixture of volatile solvents. Preferable solvents include those that can dissolve both VX-950 and the polymers. Suitable solvents include those described above, for example, methylene chloride, acetone, etc. In more preferred processes, the solvent is a mixture of methylene chloride and acetone. The percent weight ratio of methylene chloride:acetone can be for example, about 100:0, about 90:10, about 80:20, about 70:30, about 60:40, and is preferably about 80:20 or about 70:30. The solvent or solvent mixture can also contain a non volatile solvent, such as glacial acetic acid. The organic acid or polar solvent solvent can be, e.g., up to about 5%, up to about 10%, or up to about 15% by weight of the solvent mixture. For example, a solvent mixture can contain a percent weight ratio of methylene chloride:acetone:glacial acetic acid of about 67:28:5 or 63:27:10. […] Such a solvent should not contain an OH group or a similarly reactive moiety. In these processes, therefore, a preferred solvent is other than an alcohol.

The nature of the next series: in vivo. To be noted: rat, po.

Turning to `CCC[C@H](NC(=O)[C@@H]1[C@H]2CCC[C@H]2CN1C(=O)[C@@H](NC(=O)[C@@H](NC(=O)c1cnccn1)C1CCCCC1)C(C)(C)C)C(=O)C(=O)NC1CC1` [VX-950], in series [1], the aqueous solubility entry was “virtually undetectable”, the “pH dependence of aqueous solubility” value is reported as “not pH-dependent”, the solubility in water result was “highly insoluble” and the “solubility in water or most other conventional organic solvents” value was “does not dissolve to a significant amount”. Also, in series [2], the “chemical reactivity with alcohols” value is “has shown chemical reactivity with some alcohols”. The compound further came in with a bioavailability in “in vivo” below 0.5%.

A word on the bioavailability: it is dose-corrected exposure relative to a reference, in per cent. A high value points to good availability.
